Measurements published in patent US20220340547A1, “INDOLE DERIVATIVE-CONTAINING INHIBITOR, PREPARATION METHOD THEREFOR AND APPLICATION THEREOF” (Shanghi Hansoh Biosoh Biomedical Co., Ltd., priority 2019, published 2022).

Columns and labels:
EGFR D770_N771insNPG = EGFR D770_N771insNPG (Homo sapiens, UniProt P00533, INS770NPG); assay: TR-FRET inhibition of kinase activity of EGFR exon 20 insertion mutation; format: biochemical
[1] = tested on: Ba/F3 EGFR-D770-N771ins_SVD xenograft; assay: In vivo pharmacodynamic study in mouse pro-B cell Ba/F3 EGFR-D770-N771ins_SVD xenograft model; conditions: 40 mg/kg, oral, 1 time/day, 14 days; for Tumor volume (mm3, Mean ± SD) Day 14: BALB/cA nude mice
Procedure: In Vivo Pharmacodynamic Study of the Compound of the Present Invention in the Mouse Pro-B Cell Ba/F3 EGFR-D770-N771ins_SVD Xenograft Model
The in vivo efficacy of the compound in the mouse pro-B cell Ba/F3 EGFR-D770-N771ins_SVD xenograft model was evaluated.
BALB/cA nude mice (6-8 weeks old, female) were purchased from Shanghai Sino-British SIPPR/BK Lab Animal Co., Ltd.
a. […] The resuscitated cells were placed in the cell culture flasks (cell type, date, the name of the culturing person and the like were marked on the flask wall), and incubated in a CO2 incubator (the incubator temperature was 37° C., and the CO2 concentration was 5%).
b. The cells were passaged every three days. After passage, the cells were further incubated in the CO2 incubator. The process was repeated until the number of cells met the requirements of the in vivo pharmacodynamic study.
c. The cultured cells were collected and counted by the automatic cell counter. According to the counting results, the cells were resuspended in PBS to prepare a cell suspension (density: 2×10^7 cells/mL), which was placed in an ice box for later use.
d. The test nude mice were inoculated in turn (0.1 mL of cell suspension per mouse).
a. Tumor was measured on Day 8 to Day 14 after inoculation depending on the tumor growth, and tumor size was calculated.
Tumor volume calculation: tumor volume (mm^3)=length (mm)×width (mm)×width (mm)/2
b. According to the body weight and tumor size of the tumor-bearing mouse, the mice were randomly grouped (5 mice per group).
d. The tumor was measured and the mouse was weighed twice a week after the test drug was administrated.
Calculation of the Tumor Growth Inhibition Rate TGI (%) of the Compound: […]

A431 cell line = assay: Proliferation of A431 cell line (CellTiter-Glo); format: cell-based; conditions: Homo sapiens, A-431, 72 h
[2] = molecular target: Ba/F3 EGFR-D770-N771ins_SVD (Homo sapiens, UniProt P00533, DUP768-770, cells depend on it); assay: Proliferation of Ba/F3 EGFR mutant cell line (CellTiter-Glo); format: cell-based, mouse; conditions: 72 h to 144 h, read-out: Ba/F3 EGFR-D770-N771ins_SVD IC50
[3] = Plasma stability test, rat plasma; format: in vitro ADME; conditions: 37° C.
Procedure: (§1) Test Example 5. Plasma Stability Test
(§2) The objective of this experiment is to determine the stability of the compounds of the examples in the plasma of mouse, rat and human.
(§3) 1. Plasma preparation: Animal or human whole blood was collected, placed into a test tube containing anticoagulant, and centrifuged at 3500 rpm for 10 min. The light yellow plasma in the upper layer was collected.
(§4) 2. 1 mM test compound (m/M/V=C), the compound was weighed and formulated into stock solution with DMSO.
(§5) 1. 398 μL of plasma and 2 μL of 1 mM compound (test compound) were added successively to a 96-well plate, and incubated at 37° C.
(§6) 2. 50 μL of solution was taken out at 0, 15, 30, 60, 120 min, to which 400 μL of methanol stop solution containing internal standard was added.
(§7) 3. The solution was centrifuged (3220 g, 30 min). 50 μL of supernatant was taken out, to which 50 μL of DDH2O was added to dilute. The resulting solution was injected into a LC-MS/MS.

[4] = Plasma stability test, human plasma; format: in vitro ADME; conditions: 37° C.
Procedure: as §1, §2, §3, §4, §5, §6, §7

[5] = Plasma stability test, mouse plasma; format: in vitro ADME; conditions: 37° C.
Procedure: as §1, §2, §3, §4, §5, §6, §7

EGFR WT = EGFR WT (Homo sapiens, UniProt P00533); assay: TR-FRET inhibition of kinase activity of wild type EGFR; format: biochemical
Text: Determination of the Inhibitory Effect of the Compound of the Present Invention on the Kinase Activity of Wild Type EGFR
Experimental objective: The objective of this test example is to determine the inhibitory effect of the compound on the kinase activity of wild type EGFR.
Experimental process: The experiment applied the TR-FRET (time-resolved fluorescence resonance energy transfer) method to study the inhibitory effect of the compound on the kinase activity of wild type EGFR. The experiment was carried out in a 384-well plate. Experimental buffer (50 mM HEPES, 1 mM EGTA, 10 mM MgCl2, 2 mM DTT, 0.01% Tween-20) was formulated. The compound was diluted in gradient to different concentrations with the experimental buffer. 2 μL of the solution was added to each well of the 384-well plate. 4 μL of diluted EGFR kinase solution (0.001-0.5 nM) was added, and the plate was incubated at room temperature for 10 minutes. 4 μL of ULight-poly GT/ATP mixed solution was added, and the plate was incubated at room temperature for 30 to 60 minutes. 5 μL of EDTA stop solution and 5 μL of Eu-labeled antibody detection solution were added, and the plate was incubated at room temperature for 1 hour.
Experimental Data Processing Method:
The concentration and inhibition rate were fitted to a nonlinear regression curve by Graphpad Prism software to obtain the IC50 value.

Sequence of Ba/F3 EGFR-D770-N771ins_SVD (P00533 with tags, fused parts or gaps DUP768-770): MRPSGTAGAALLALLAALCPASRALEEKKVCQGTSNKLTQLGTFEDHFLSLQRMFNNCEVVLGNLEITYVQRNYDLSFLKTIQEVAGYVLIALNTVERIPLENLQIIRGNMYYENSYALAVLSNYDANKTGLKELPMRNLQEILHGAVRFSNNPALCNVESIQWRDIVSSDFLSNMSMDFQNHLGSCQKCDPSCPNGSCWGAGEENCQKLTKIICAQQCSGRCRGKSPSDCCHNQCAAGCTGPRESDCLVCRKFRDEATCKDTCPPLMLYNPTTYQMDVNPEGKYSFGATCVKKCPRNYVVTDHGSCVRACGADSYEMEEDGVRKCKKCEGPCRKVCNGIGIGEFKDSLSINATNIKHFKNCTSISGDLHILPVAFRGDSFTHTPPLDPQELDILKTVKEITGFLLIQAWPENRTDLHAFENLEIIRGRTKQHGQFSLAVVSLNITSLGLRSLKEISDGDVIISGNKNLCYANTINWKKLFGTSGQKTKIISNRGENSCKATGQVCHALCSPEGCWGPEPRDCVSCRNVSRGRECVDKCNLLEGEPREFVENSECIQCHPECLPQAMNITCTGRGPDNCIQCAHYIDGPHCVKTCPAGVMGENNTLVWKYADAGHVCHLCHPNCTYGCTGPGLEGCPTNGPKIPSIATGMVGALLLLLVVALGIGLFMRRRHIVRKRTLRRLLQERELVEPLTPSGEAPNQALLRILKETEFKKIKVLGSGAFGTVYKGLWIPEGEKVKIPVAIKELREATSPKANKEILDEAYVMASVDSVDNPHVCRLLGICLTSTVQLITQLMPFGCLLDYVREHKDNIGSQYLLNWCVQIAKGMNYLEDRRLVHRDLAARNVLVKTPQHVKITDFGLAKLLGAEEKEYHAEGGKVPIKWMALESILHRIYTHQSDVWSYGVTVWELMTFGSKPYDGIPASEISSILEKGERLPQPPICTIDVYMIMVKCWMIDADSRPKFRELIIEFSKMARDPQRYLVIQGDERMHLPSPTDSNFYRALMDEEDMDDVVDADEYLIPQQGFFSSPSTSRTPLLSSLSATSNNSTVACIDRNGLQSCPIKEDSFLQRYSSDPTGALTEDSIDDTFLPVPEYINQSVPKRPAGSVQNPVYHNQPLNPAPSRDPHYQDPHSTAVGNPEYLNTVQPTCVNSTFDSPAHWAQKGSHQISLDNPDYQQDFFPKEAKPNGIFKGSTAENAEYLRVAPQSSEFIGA
Sequence of EGFR D770_N771insNPG (P00533 with tags, fused parts or gaps INS770NPG limits assumed): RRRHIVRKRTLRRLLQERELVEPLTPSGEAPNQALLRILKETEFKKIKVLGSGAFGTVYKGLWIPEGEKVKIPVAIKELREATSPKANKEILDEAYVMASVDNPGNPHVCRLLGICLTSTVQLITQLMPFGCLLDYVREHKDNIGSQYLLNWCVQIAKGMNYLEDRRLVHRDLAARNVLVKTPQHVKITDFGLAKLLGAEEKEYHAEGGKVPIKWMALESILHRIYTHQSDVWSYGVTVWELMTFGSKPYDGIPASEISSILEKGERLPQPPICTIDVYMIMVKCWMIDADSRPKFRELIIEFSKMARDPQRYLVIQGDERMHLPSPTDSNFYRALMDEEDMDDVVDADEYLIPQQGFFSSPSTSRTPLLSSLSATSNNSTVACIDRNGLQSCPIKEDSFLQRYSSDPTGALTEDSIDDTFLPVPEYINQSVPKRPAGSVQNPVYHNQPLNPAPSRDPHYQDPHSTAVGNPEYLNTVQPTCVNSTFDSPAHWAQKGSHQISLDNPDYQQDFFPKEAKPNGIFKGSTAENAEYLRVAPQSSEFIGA
Sequence of EGFR WT (P00533 25-1210): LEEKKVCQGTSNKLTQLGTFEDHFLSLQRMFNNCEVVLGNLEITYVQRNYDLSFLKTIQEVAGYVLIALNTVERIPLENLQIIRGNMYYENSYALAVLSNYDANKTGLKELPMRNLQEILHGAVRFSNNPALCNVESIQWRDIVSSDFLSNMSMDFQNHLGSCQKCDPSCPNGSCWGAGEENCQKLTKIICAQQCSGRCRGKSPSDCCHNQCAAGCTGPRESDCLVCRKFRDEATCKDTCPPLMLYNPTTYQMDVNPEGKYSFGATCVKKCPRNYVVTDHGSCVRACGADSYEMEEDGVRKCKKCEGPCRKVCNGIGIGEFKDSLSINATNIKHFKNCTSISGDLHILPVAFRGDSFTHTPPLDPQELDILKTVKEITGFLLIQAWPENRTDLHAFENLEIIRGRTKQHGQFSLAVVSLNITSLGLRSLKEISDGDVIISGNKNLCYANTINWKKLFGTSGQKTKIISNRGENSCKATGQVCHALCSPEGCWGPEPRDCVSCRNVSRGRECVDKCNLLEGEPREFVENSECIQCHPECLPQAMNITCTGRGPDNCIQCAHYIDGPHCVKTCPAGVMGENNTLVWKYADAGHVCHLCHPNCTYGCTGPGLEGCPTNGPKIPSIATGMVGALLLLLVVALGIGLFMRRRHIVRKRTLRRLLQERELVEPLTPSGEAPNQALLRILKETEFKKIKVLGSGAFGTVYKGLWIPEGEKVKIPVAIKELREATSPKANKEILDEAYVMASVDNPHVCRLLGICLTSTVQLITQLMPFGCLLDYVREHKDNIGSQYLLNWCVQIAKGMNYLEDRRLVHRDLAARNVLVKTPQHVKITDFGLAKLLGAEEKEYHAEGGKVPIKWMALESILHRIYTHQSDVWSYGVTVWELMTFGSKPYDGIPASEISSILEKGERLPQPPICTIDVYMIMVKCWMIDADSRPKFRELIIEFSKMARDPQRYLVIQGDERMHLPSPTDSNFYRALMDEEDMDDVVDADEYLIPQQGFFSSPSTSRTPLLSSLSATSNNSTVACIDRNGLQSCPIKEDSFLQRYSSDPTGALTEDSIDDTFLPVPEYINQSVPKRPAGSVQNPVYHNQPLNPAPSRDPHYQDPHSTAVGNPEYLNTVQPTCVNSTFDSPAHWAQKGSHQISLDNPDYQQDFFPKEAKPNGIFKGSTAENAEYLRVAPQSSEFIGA

IC50 (EGFR D770_N771insNPG) [nM] | IC50 (A431 cell line) [nM] | GI50 [2] [nM] | IC50 (EGFR WT) [nM] | Compound | T/C (%) Day 14 [1] [%] | TGI (%) Day 14 [1] [%] | Tumor volume (mm3, Mean ± SD) Day 14 [1] [mm3] | other results
0.47 | 66.8 | 22.9 | – | C=CC(=O)Nc1cc(Nc2ncc(-c3ncco3)c(-c3cn(C)c4ccccc34)n2)c(OC)cc1N(C)CCN(C)C [Example 81, N-(2-((2-(Dimethylamino)ethyl)(methyl)amino)-4-methoxy-5-((4-(1-methyl-1H-indol-3-yl)-5-(oxazol-2-yl)pyrimidin-2-yl)amino)phenyl)acrylamide] | 17.23 | 82.77 | 334 ± 121 | –
0.14 | 94.5 | 10.4 | – | C=CC(=O)Nc1cc(Nc2ncc(C#N)c(-c3cn(C4CC4)c4ccccc34)n2)c(OC)cc1N(C)CCN(C)C [Example 67, N-(5-((5-Cyano-4-(1-cyclopropyl-1H-indol-3-yl)pyrimidin-2-yl)amino)-2-((2-(dimethylamino)ethyl)(methyl)amino)-4-methoxyphenyl)acrylamide] | 10.94 | 89.06 | 212 ± 44 | half-life at 5 µM [3]: 1.23 h; Residual rate (%) 0 min ([3]; 0 min): 100.00%; Residual rate (%) 15 min ([3]; 15 min): 90.61%; Residual rate (%) 30 min ([3]; 30 min): 81.14%; Residual rate (%) 60 min ([3]; 60 min): 59.66%; Residual rate (%) 120 min ([3]; 120 min): 33.25%; half-life at 5 µM [4]: 1.38 h; Residual rate (%) 0 min ([4]; 0 min): 100.00%; Residual rate (%) 15 min ([4]; 15 min): 93.86%; Residual rate (%) 30 min ([4]; 30 min): 85.71%; Residual rate (%) 60 min ([4]; 60 min): 67.74%; Residual rate (%) 120 min ([4]; 120 min): 37.38%; half-life at 5 µM [5]: 0.665 h; Residual rate (%) 0 min ([5]; 0 min): 100.00%; Residual rate (%) 15 min ([5]; 15 min): 88.69%; Residual rate (%) 30 min ([5]; 30 min): 69.92%; Residual rate (%) 60 min ([5]; 60 min): 36.29%; Residual rate (%) 120 min ([5]; 120 min): 9.06%
– | – | – | 250 | C=CC(=O)Nc1cc(Nc2ncc(N=S(C)(C)=O)c(-c3cn(C)c4ccccc34)n2)c(OC)cc1N(C)CCN(C)C [Example 136, N-(5-((5-((Dimethyl(oxo)-λ^6-sulfaneylidene)amino)-4-(1-methyl-1H-indol-3-yl)pyrimidin-2-yl)amino)-2-((2-(dimethylamino)ethyl)(methyl)amino)-4-methoxyphenyl)acrylamide] | – | – | – | –

Continued, compound first:

Compound | IC50 (EGFR D770_N771insNPG) [nM] | IC50 (A431 cell line) [nM] | GI50 [2] [nM] | IC50 (EGFR WT) [nM] | T/C (%) Day 14 [1] [%] | TGI (%) Day 14 [1] [%] | Tumor volume (mm3, Mean ± SD) Day 14 [1] [mm3] | other results
C=CC(=O)Nc1cc(Nc2ncc(-c3ncco3)c(-c3cn(C4CC4)c4ccccc34)n2)c(OC)cc1N(C)CCN(C)C [Example 37, N-(5-((4-(1-Cyclopropyl-1H-indol-3-yl)-5-(oxazol-2-yl)pyrimidin-2-yl)amino)-2-((2-(dimethylamino)ethyl)(methyl)amino)-4-methoxyphenyl)acrylamide] | 0.56 | 66 | 16.6 | – | 25.75 | 74.25 | 499 ± 151 | –
C=CC(=O)Nc1cc(Nc2nccc(-c3cn(C)c4ccccc34)n2)c(OC)cc1N(C)CCN(C)C [ADZ9291] | – | – | – | – | 48.40 | 51.60 | 935 ± 176 | –
C=CC(=O)Nc1cc(Nc2ncc(C(=O)NCc3ccc(F)cc3)c(-c3cn(C)c4ccccc34)n2)c(OC)cc1N(C)CCN(C)C [Example 142, 2-((5-Acrylamido-4-((2-(dimethylamino)ethyl)(methyl)amino)-2-methoxyphenyl)amino)-N-(4-fluorobenzyl)-4-(1-methyl-1H-indol-3-yl)pyrimidine-5-carboxamide] | – | – | – | 133 | – | – | – | –
